Test system: OVCAR-5 complex spheroids with HUVEC/MSC, viability, % test/control
Assay: Anticancer human tumor OVCAR-5 cell line growth inhibition [AhR];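 also: spheroids exposed to compounds for 7 days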;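 as to viability, T/C: 100% = DMSO vehicle control wells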
Conditions: for IC50: curve of first compound; for viability, T/C: stronger effect = lower value
Summary of the method: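 Agents were dosed in half-log steps down from roughly clinical Cmax, or from 10 microM where Cmax was unknown, alone and with AhR antagonists. Read-out: percent test/control growth of tumor spheroids containing HUVEC and MSC stromal cells.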

[1] = second compound 0.1 µM, first compound 0.00949 µM
[2] = second compound 0.1 µM, first compound 0.03 µM
[3] = second compound 0.1 µM, first compound 0.0949 µM
[4] = second compound 0.1 µM, first compound 0.3 µM
[5] = second compound 0.1 µM, first compound 0.949 µM
[6] = second compound 0.1 µM, first compound 3 µM
[7] = second compound 0.316 µM, first compound 0.00949 µM
[8] = second compound 0.316 µM, first compound 0.03 µM
[9] = second compound 0.316 µM, first compound 0.0949 µM
[10] = second compound 0.316 µM, first compound 0.3 µM
[11] = second compound 0.316 µM, first compound 0.949 µM
[12] = second compound 0.316 µM, first compound 3 µM
[13] = second compound 1 µM, first compound 0.00949 µM
[14] = second compound 1 µM, first compound 0.03 µM
[15] = second compound 1 µM, first compound 0.0949 µM
[16] = second compound 1 µM, first compound 0.3 µM
[17] = second compound 1 µM, first compound 0.949 µM
[18] = second compound 1 µM, first compound 3 µM
[19] = second compound 3.16 µM, first compound 0.00949 µM
[20] = second compound 3.16 µM, first compound 0.03 µM
[21] = second compound 3.16 µM, first compound 0.0949 µM
[22] = second compound 3.16 µM, first compound 0.3 µM
[23] = second compound 3.16 µM, first compound 0.949 µM
[24] = second compound 3.16 µM, first compound 3 µM
[25] = second compound 10 µM, first compound 0.00949 µM
[26] = second compound 10 µM, first compound 0.03 µM
[27] = second compound 10 µM, first compound 0.0949 µM
[28] = second compound 10 µM, first compound 0.3 µM
[29] = second compound 10 µM, first compound 0.949 µM
[30] = second compound 10 µM, first compound 3 µM

Compound | IC50 (second compound 0.1 µM) [µM] | IC50 (second compound 0.316 µM) [µM] | IC50 (second compound 1 µM) [µM] | IC50 (second compound 3.16 µM) [µM] | IC50 (second compound 10 µM) [µM] | viability, T/C [1] [%] | viability, T/C [2] [%] | viability, T/C [3] [%] | viability, T/C [4] [%] | viability, T/C [7] [%] | viability, T/C [8] [%] | viability, T/C [9] [%] | viability, T/C [10] [%] | viability, T/C [13] [%] | viability, T/C [14] [%] | viability, T/C [15] [%] | viability, T/C [16] [%] | viability, T/C [19] [%] | viability, T/C [20] [%] | viability, T/C [21] [%] | further results
CCN(c1cc(-c2ccc(CN3CCOCC3)cc2)cc(C(=O)NCc2c(C)cc(C)[nH]c2=O)c1C)C1CCOCC1 + CC(CO)NC(=O)c1cc(-c2ccc(Cl)cc2)nn(-c2cnn(C)c2)c1=O | > 3 | > 3 | > 3 | > 3 | > 3 | 114 | 111 | 111 | 110 | 113 | 117 | 114 | 107 | 116 | 118 | 119 | 115 | 108 | 113 | 107 | viability, T/C [5]: 106%; viability, T/C [6]: 109%; viability, T/C [11]: 111%; viability, T/C [12]: 110%; viability, T/C [17]: 113%; viability, T/C [18]: 117%; viability, T/C [22]: 98.8%; viability, T/C [23]: 91.8%; viability, T/C [24]: 97.8%; viability, T/C [25]: 102%; viability, T/C [26]: 106%; viability, T/C [27]: 99%; viability, T/C [28]: 97.7%; viability, T/C [29]: 98.1%; viability, T/C [30]: 99.9%
Nc1ncn(C2CC(O)C(CO)S2)c(=O)n1 (stereo not given) + CC(CO)NC(=O)c1cc(-c2ccc(Cl)cc2)nn(-c2cnn(C)c2)c1=O | > 0.3 | > 0.3 | > 0.3 | > 0.3 | > 0.3 | 106 | 110 | 103 | 85.3 | 109 | 105 | 101 | 84.6 | 113 | 109 | 106 | 91.9 | 102 | 104 | 93.3 | viability, T/C (second compound 0.1 µM, first compound 0.000949 µM): 104%; viability, T/C (second compound 0.1 µM, first compound 0.003 µM): 110%; viability, T/C (second compound 0.316 µM, first compound 0.000949 µM): 103%; viability, T/C (second compound 0.316 µM, first compound 0.003 µM): 109%; viability, T/C (second compound 1 µM, first compound 0.000949 µM): 109%; viability, T/C (second compound 1 µM, first compound 0.003 µM): 112%; viability, T/C (second compound 3.16 µM, first compound 0.000949 µM): 101%; viability, T/C (second compound 3.16 µM, first compound 0.003 µM): 104%; viability, T/C [22]: 83.5%; viability, T/C (second compound 10 µM, first compound 0.000949 µM): 99.7%; viability, T/C (second compound 10 µM, first compound 0.003 µM): 101%; viability, T/C [25]: 98.9%; viability, T/C [26]: 98.4%; viability, T/C [27]: 93%; viability, T/C [28]: 86.2%
O=C(C=Cn1cnc(-c2cc(C(F)(F)F)cc(C(F)(F)F)c2)n1)NNc1cnccn1 + CC(CO)NC(=O)c1cc(-c2ccc(Cl)cc2)nn(-c2cnn(C)c2)c1=O | 1.9 | 2.18 | 2.68 | 2.02 | 1.67 | 109 | 113 | 101 | 86.7 | 110 | 110 | 104 | 86 | 113 | 114 | 111 | 90.1 | 101 | 112 | 103 | viability, T/C [5]: 66.4%; viability, T/C [6]: 39.6%; viability, T/C [11]: 64%; viability, T/C [12]: 44.7%; viability, T/C [17]: 70.2%; viability, T/C [18]: 47.5%; viability, T/C [22]: 87.5%; viability, T/C [23]: 69.7%; viability, T/C [24]: 40.1%; viability, T/C [25]: 97%; viability, T/C [26]: 98.2%; viability, T/C [27]: 97.6%; viability, T/C [28]: 83.3%; viability, T/C [29]: 65.8%; viability, T/C [30]: 34.2%

From PubChem BioAssay AID1919015 (Molecular Pharmacology Branch, DTP, NCI, 2023)
